According to patent publication US10624836B2, “Essential oil of achillea as anti-ageing agent” (L'OREAL, priority 2013, dated 2020):

Assays:
[1] = test system: epidermis of a Realskin™ reconstructed skin; test: Intra-tissue glutathione (GSH) level in reconstructed skin, LC/MS of GS-NEM; format: cell-based; details: lipoic acid 250 μmol·l^−1; 16 h at 37° C.; positive control
Procedure: For this, the GSH level was measured in the epidermis of a Realskin™ reconstructed skin which was: • nontreated (control), • treated with essential oil of Achillea at 0.01% by volume, or • treated with lipoic acid at 250 μmol·l^−1 (positive control).
The reconstructed tissue model kits are conditioned for transport on agar medium. Upon arrival, the tissues were reconditioned in a maintenance medium for a minimum of 16 h at 37° C. in a moisture-saturated atmosphere enriched with 5% CO2. The same medium was used for the incubations in the presence of the substrate.
The various solutions (2 ml) (of essential oil of Achillea at 0.01% by volume and of lipoic acid at […]) were deposited in the wells underneath the skins in order to diffuse through said skins more easily by capillary action. The tissues were then incubated in an incubator at 37° C. for 16 h.
The tissues were ground by means of a Potter grinder in […] of a solution of N-ethylmaleimide (NEM) at 2.5 mmol·l^−1 (excess of NEM). The Potter grinder was then washed with […] of ultrapure water, and 500 μl of 2% formic acid were added. The samples were then centrifuged for 15 minutes at 6000 rpm and at 4° C.
In order to assay the glutathione coupled to the NEM (GS-NEM), […] of the supernatant is diluted in 975 μl of 1% formic acid (1/40) in a 1 ml vial. […]

[2] = test system: primary normal human keratinocytes; test: Collagen IV production by keratinocytes, in situ immunolabelling and image analysis; format: cell-based; details: TGF-β tested at 10 ng/ml; 72 hours at 37° C.; positive control
Procedure: The keratinocytes were seeded into and cultured in culture medium for 24 hours.
The culture medium (2.5 ml) was then replaced: • either with test medium containing TGF-β (Transforming Growth Factor β) at 10 ng/ml (positive control), • or with test medium containing the essential oil of Example 1 at 0.003% by volume, • or with the same culture medium (control).
The cells were then incubated for 72 hours at 37° C.
The culture medium was removed and the cells were rinsed, fixed and permeabilized. They were then labelled with an Anti-Collagen IV primary antibody sold by Abcam (reference: Ab6586) directed against the protein of interest (collagen IV). This antibody was visualized with an Alexa Fluor® 488 Goat Anti-Rabbit IgG (H+L) secondary antibody sold by Invitrogen (reference: A11008) coupled to a fluorochrome (GAR-Alexa 488). In parallel, the nuclei of the cells were stained with Hoechst 33258 (bisbenzimide).
The image acquisition was carried out with an INCellAnalyzer™1000 (GE Healthcare) high-resolution imaging system. For each well, 5 digitized images were acquired.
The labellings were quantified by measuring the fluorescence intensity of the proteins relative to the number of nuclei identified by the Hoechst product (integration of the digital data using the Developer Toolbox 1.5 software, GE Healthcare).

Row | Compound | increase in the GSH level relative to the nontreated tissues [1] | collagen IV production by the keratinocytes, relative to the control [2] [%]
1 | O=C(O)CCCC[C@@H]1CCSS1 (racemic) [lipoic acid] | 52.0+/−12.7% | –
2 | TGF-β | – | 594
